Laboratory results reported in ChEMBL document CHEMBL1136905, “Substituted isoxazole analogs of farnesoid X receptor (FXR) agonist GW4064” (Bioorg Med Chem Lett, 2009).
pEC50: −log10 of the molar value.

Experiments:
[1] = Selectivity ratio of XC50 for PXR to EC50 for human FXR
[2] = Selectivity ratio of XC50 for LXRalpha to EC50 for human FXR
[3] = molecular target: T1, Oxysterols receptor LXR-alpha (Homo sapiens, UniProt Q13133); experiment: Activity at LXRalpha assessed as coactivator peptide interaction with receptor ligand binding domain by FRET assay
T1 sequence (Q13133 whole entry): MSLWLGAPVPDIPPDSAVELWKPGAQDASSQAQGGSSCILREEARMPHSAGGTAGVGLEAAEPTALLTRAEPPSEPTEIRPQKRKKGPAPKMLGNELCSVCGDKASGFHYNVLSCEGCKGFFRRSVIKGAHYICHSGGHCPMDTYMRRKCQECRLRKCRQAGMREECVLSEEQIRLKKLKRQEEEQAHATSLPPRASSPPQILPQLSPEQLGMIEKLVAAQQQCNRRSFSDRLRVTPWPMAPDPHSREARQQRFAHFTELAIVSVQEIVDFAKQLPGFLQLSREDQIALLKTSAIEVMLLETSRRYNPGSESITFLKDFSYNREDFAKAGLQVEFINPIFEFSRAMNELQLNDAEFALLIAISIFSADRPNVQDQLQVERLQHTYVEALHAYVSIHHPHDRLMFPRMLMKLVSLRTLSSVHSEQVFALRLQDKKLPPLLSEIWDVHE

[4] = molecular target: T2, Oxysterols receptor LXR-alpha (Homo sapiens) (UniProt Q13133); experiment: Activity at LXRalpha assessed as coactivator peptide interaction with receptor ligand binding domain by FRET assay relative to standard control
T2 sequence (whole entry): T1 sequence (Q13133 whole entry)

[5] = molecular target: T3, Bile acid receptor (Homo sapiens) (UniProt Q96RI1); experiment: Agonist activity at human FXR assessed as SRC1 peptide interaction with receptor ligand binding domain by FRET assay relative to GW-4064
T3 sequence (whole entry): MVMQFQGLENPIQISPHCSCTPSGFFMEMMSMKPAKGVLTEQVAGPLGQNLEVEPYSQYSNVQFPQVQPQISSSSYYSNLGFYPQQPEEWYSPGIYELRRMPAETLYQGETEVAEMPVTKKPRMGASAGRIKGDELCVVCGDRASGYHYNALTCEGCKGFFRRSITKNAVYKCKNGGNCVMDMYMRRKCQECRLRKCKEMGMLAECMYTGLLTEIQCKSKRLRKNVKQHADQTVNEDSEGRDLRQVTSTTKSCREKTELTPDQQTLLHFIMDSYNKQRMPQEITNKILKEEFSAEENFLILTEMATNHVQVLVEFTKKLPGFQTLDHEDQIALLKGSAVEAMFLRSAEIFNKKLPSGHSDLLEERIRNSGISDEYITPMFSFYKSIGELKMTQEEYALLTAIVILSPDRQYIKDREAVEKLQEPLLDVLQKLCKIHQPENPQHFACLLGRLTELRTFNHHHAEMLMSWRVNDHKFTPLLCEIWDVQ

[6] = molecular target: T4, PXR (Nuclear receptor subfamily 1 group I member 2) (Homo sapiens, UniProt O75469); experiment: Activity at PXR assessed as coactivator peptide interaction with receptor ligand binding domain by scintillation proximity assay
T4 sequence (O75469 whole entry): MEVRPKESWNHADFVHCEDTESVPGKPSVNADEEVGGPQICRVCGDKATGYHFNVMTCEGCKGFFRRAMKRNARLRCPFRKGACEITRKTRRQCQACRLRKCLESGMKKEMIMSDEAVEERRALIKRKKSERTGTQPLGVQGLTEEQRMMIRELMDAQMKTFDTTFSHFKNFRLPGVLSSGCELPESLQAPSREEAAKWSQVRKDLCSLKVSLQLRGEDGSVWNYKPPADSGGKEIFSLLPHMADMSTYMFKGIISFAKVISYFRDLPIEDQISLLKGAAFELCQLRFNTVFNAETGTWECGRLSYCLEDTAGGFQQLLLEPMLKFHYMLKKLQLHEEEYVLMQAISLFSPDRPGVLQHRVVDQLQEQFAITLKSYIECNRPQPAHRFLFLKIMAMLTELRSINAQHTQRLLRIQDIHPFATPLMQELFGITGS

[7] = molecular target: T5, Oxysterols receptor LXR-beta (Homo sapiens) (UniProt P55055); experiment: Activity at LXRbeta assessed as coactivator peptide interaction with receptor ligand binding domain by scintillation proximity assay relative to standard control
T5 sequence (whole entry): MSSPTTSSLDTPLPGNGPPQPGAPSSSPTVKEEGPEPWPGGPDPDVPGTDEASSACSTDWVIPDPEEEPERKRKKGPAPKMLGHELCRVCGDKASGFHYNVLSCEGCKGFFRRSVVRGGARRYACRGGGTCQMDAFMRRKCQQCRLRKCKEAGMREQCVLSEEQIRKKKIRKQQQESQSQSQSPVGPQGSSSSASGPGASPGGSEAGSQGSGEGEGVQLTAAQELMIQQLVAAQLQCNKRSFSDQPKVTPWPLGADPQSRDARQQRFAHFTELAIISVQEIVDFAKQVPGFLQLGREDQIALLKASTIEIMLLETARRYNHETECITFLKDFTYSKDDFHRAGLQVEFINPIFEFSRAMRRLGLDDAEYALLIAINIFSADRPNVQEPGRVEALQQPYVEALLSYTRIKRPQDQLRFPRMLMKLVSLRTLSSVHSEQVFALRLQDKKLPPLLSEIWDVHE

[8] = Selectivity ratio of XC50 for LRH to EC50 for human FXR
[9] = molecular target: T6, Nuclear receptor subfamily 5 group A member 2 (Homo sapiens, UniProt O00482); experiment: Activity at LRH assessed as coactivator peptide interaction with receptor ligand binding domain by FRET assay
[10] = Selectivity ratio of XC50 for LXRbeta to EC50 for human FXR
[11] = molecular target: T6, Nuclear receptor subfamily 5 group A member 2; experiment: Activity at LRH assessed as coactivator peptide interaction with receptor ligand binding domain by FRET assay relative to standard control
[12] = molecular target: T7, Bile acid receptor (Homo sapiens, UniProt Q96RI1); experiment: Agonist activity at human FXR assessed as SRC1 peptide interaction with receptor ligand binding domain by FRET assay
T7 sequence (Q96RI1 whole entry): T3 sequence (whole entry)

[13] = molecular target: T3, Bile acid receptor (Homo sapiens); experiment: Agonist activity at human FXR transfected in african green monkey CV1 cells by luciferase reporter gene transient transfection assay relative to GW-4064; format: functional, cell-based; conditions: CV-1
[14] = molecular target: T4, PXR (Nuclear receptor subfamily 1 group I member 2); experiment: Activity at PXR assessed as coactivator peptide interaction with receptor ligand binding domain by scintillation proximity assay relative to standard control; conditions: read-out: %max
[15] = molecular target: T8, Oxysterols receptor LXR-beta (Homo sapiens, UniProt P55055); experiment: Activity at LXRbeta assessed as coactivator peptide interaction with receptor ligand binding domain by scintillation proximity assay
T8 sequence (P55055 whole entry): T5 sequence (whole entry)

[16] = molecular target: T9, Nuclear receptor ROR-alpha (Homo sapiens, UniProt P35398); experiment: Activity at RORalpha assessed as coactivator peptide interaction with receptor ligand binding domain by FRET assay
T9 sequence (P35398 whole entry): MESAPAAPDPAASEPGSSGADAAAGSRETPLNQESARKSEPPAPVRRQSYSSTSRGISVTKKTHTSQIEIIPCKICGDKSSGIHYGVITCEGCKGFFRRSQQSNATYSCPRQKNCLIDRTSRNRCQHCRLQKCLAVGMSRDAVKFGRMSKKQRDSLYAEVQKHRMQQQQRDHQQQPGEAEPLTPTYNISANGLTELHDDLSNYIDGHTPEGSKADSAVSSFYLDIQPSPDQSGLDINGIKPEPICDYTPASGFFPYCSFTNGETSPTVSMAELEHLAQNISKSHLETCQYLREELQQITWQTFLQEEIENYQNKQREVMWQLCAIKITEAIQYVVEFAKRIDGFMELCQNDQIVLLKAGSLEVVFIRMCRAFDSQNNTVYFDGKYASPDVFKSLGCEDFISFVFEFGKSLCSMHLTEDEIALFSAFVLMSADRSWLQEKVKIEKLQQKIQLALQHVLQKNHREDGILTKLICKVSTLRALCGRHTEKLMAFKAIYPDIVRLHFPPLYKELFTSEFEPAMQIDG

[17] = Selectivity ratio of XC50 for RORalpha to EC50 for human FXR
[18] = molecular target: T7, Bile acid receptor; experiment: Agonist activity at human FXR transfected in african green monkey CV1 cells by luciferase reporter gene transient transfection assay; format: functional, cell-based, CV-1

T6 sequence (O00482 whole entry, the tested form may be a part): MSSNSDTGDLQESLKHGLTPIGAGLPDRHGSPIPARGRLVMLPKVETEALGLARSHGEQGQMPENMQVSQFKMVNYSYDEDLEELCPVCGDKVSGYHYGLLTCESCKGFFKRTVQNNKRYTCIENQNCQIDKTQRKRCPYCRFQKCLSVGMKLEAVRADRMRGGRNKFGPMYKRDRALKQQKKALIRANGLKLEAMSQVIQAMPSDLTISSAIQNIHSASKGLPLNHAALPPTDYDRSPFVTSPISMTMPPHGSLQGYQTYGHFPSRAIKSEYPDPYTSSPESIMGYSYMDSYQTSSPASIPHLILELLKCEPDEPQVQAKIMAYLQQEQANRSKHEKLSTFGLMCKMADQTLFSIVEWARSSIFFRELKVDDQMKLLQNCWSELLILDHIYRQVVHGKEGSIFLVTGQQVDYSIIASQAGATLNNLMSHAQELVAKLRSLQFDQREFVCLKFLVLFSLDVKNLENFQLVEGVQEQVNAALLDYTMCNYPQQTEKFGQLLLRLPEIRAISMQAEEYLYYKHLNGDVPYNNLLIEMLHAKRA

- Ratio [1]: 100
- Ratio [2]: 100
- XC50 [3]: 1400 nM
- %max [4]: 33%
- %max [5]: 110%
- XC50 [6]: 960 nM
- %max [7]: 101%
- Ratio [8]: 100
- XC50 [9]: 4200 nM
- Ratio [10]: 100
- %max [11]: 46%
- pEC50 [12]: 7.55
- %max [13]: 100%
- Emax [14]: 100%
- XC50 [15]: 2500 nM
- XC50 [16]: > 10000 nM
- Ratio [17]: 100
- pEC50 [18]: 7.14
Structure (SMILES): CC(C)c1onc(C[S+]([O-])c2c(Cl)cccc2Cl)c1COc1ccc(/C=C/c2cccc(C(=O)O)c2)c(Cl)c1 (stereo not drawn)
